# Experiments:
# [1] = system: patients with advanced BRAF-mutated or wild-type (WT) melanoma; assay: Phase 1 Part B (expansion): safety, MTD confirmation; assay type: in vivo, human
# Procedure: In Part B, an adaptive study design was planned to define an optimal dosing schedule. Two schedules were evaluated: Schedule I (once-weekly dosing at the MTD, 320 mg/m^2, on Days 1, 8, and 15 of a 28-day cycle) and Schedule II (twice-weekly dosing, on Days 1, 4, 8, 11, 15, and 18 of a 28-day cycle, starting at 160 mg/m^2, based on the Schedule I MTD). One dose escalation (from 160 mg/m^2 to 320 mg/m^2) was allowed in Schedule II for MTD determination. […] Toxicity was managed as before. Up to 30 patients with BRAF-mutated melanoma and up to 29 patients with BRAF-WT melanoma were to be enrolled in Schedule I. Up to 30 patients were to be enrolled into Schedule II once the MTD was confirmed. Based on the efficacy observed in Part A, Schedule II was initiated only in patients with BRAF-mutated melanoma. Patients could continue to receive E6201 as long as there was evidence of clinical benefit (extension phase).
# (§1) Safety was assessed by monitoring AEs, serious AEs (SAEs), laboratory parameters, vital signs, 12-lead electrocardiograms (ECGs), Eastern Cooperative Oncology Group performance status, and symptom-directed physical and neurologic examination findings. AEs were graded by investigators based on the National Cancer Institute Common Terminology Criteria for Adverse Events, version 3.[16]
# [2] = system: patients with advanced solid tumours, including melanoma; assay: Phase 1 study overall (Parts A and B): safety; assay type: in vivo, human
# Procedure: as §1
# [3] = Part B, BRAF-WT 320 mg/m^2 once weekly (n=7)
# [4] = Part B, BRAF-mutated 160 mg/m^2 twice weekly (n=3)
# [5] = Part B, BRAF-mutated 320 mg/m^2 once weekly (n=20)
# [6] = Part B, BRAF-mutated 320 mg/m^2 once-weekly group
smiles,measurement,setting,value
"CCNc1cc(O)c2c(c1)/C=C/C[C@H](O)[C@H](O)C(=O)/C=C\[C@@H](C)[C@H](C)OC2=O [E6201, (3S,4R,5Z,8S,9S,11E)-14-(ethylamino)-8,9,16-trihydroxy-3,4-dimethyl-3,4,9,19-tetrahydro-1H-2-benzoxacyclotetradecine-1,7 (8H)-dione]",Patients who discontinued treatment due to SAEs,[1]; Part B,4 patients
same,"Fatigue TEAE, patients","[1]; Part B overall, 11 patients",36.7%
same,"Grade 3/4 abdominal pain, patients","[1]; Part B, 2 patients",6.7%
same,"Grade 3/4 dyspnea, patients","[1]; Part B, 2 patients",6.7%
same,"Treatment-emergent SAEs other than death, patients","[1]; Part B, 14 patients",46.7%
same,"Grade 3/4 TEAEs, patients","[1]; Part B, 15 patients",50.0%
same,Patients with ≥1 TEAE assessed as treatment-related,"[1]; Part B, 19 patients",63.3%
same,"QT prolongation reported as an AE (grade 3, possibly related, not DLT), patients","[1]; Part B, 60-min infusion, 1 patient",3.3%
same,"Anemia TEAE incidence, All grades",[1]; [3],3 (42.9) n (%)
same,"Anemia TEAE incidence, G≥3",[1]; [3],1 (14.3) n (%)
same,"Constipation TEAE incidence, All grades",[1]; [3],2 (28.6) n (%)
same,"Constipation TEAE incidence, G≥3",[1]; [3],0 n (%)
same,"Cough TEAE incidence, All grades",[1]; [3],1 (14.3) n (%)
same,"Cough TEAE incidence, G≥3",[1]; [3],0 n (%)
same,"Decreased appetite TEAE incidence, All grades",[1]; [3],2 (28.6) n (%)
same,"Decreased appetite TEAE incidence, G≥3",[1]; [3],0 n (%)
same,"Fatigue TEAE incidence, All grades",[1]; [3],4 (57.1) n (%)
same,"Fatigue TEAE incidence, G≥3",[1]; [3],0 n (%)
same,"Muscular weakness TEAE incidence, All grades",[1]; [3],2 (28.6) n (%)
same,"Muscular weakness TEAE incidence, G≥3",[1]; [3],0 n (%)
same,"Nausea TEAE incidence, All grades",[1]; [3],2 (28.6) n (%)
same,"Nausea TEAE incidence, G≥3",[1]; [3],0 n (%)
same,"Pain in extremity TEAE incidence, All grades",[1]; [3],2 (28.6) n (%)
same,"Pain in extremity TEAE incidence, G≥3",[1]; [3],1 (14.3) n (%)
same,"Peripheral edema TEAE incidence, All grades",[1]; [3],2 (28.6) n (%)
same,"Peripheral edema TEAE incidence, G≥3",[1]; [3],1 (14.3) n (%)
same,"Pyrexia TEAE incidence, All grades",[1]; [3],1 (14.3) n (%)
same,"Pyrexia TEAE incidence, G≥3",[1]; [3],0 n (%)
same,"Vomiting TEAE incidence, All grades",[1]; [3],1 (14.3) n (%)
same,"Vomiting TEAE incidence, G≥3",[1]; [3],0 n (%)
same,"Deaths (multisystem organ failure, not considered related)","[1]; Part B, BRAF-mutated 160 mg/m^2 once-weekly group (so in the source)",One
same,"Anemia TEAE incidence, All grades",[1]; [4],1 (33.3) n (%)
same,"Anemia TEAE incidence, G≥3",[1]; [4],0 n (%)
same,"Constipation TEAE incidence, All grades",[1]; [4],0 n (%)
same,"Constipation TEAE incidence, G≥3",[1]; [4],0 n (%)
same,"Cough TEAE incidence, All grades",[1]; [4],1 (33.3) n (%)
same,"Cough TEAE incidence, G≥3",[1]; [4],0 n (%)
same,"Decreased appetite TEAE incidence, All grades",[1]; [4],0 n (%)
same,"Decreased appetite TEAE incidence, G≥3",[1]; [4],0 n (%)
same,"Fatigue TEAE incidence, All grades",[1]; [4],0 n (%)
same,"Fatigue TEAE incidence, G≥3",[1]; [4],0 n (%)
same,"Muscular weakness TEAE incidence, All grades",[1]; [4],1 (33.3) n (%)
same,"Muscular weakness TEAE incidence, G≥3",[1]; [4],0 n (%)
same,"Nausea TEAE incidence, All grades",[1]; [4],1 (33.3) n (%)
same,"Nausea TEAE incidence, G≥3",[1]; [4],1 (33.3) n (%)
same,"Pain in extremity TEAE incidence, All grades",[1]; [4],1 (33.3) n (%)
same,"Pain in extremity TEAE incidence, G≥3",[1]; [4],0 n (%)
same,"Peripheral edema TEAE incidence, All grades",[1]; [4],1 (33.3) n (%)
same,"Peripheral edema TEAE incidence, G≥3",[1]; [4],0 n (%)
same,"Pyrexia TEAE incidence, All grades",[1]; [4],0 n (%)
same,"Pyrexia TEAE incidence, G≥3",[1]; [4],0 n (%)
same,"Vomiting TEAE incidence, All grades",[1]; [4],1 (33.3) n (%)
same,"Vomiting TEAE incidence, G≥3",[1]; [4],1 (33.3) n (%)
same,"Anemia TEAE incidence, All grades",[1]; [5],1 (5.0) n (%)
same,"Anemia TEAE incidence, G≥3",[1]; [5],0 n (%)
same,"Constipation TEAE incidence, All grades",[1]; [5],3 (15.0) n (%)
same,"Constipation TEAE incidence, G≥3",[1]; [5],0 n (%)
same,"Cough TEAE incidence, All grades",[1]; [5],3 (15.0) n (%)
same,"Cough TEAE incidence, G≥3",[1]; [5],0 n (%)
same,"Decreased appetite TEAE incidence, All grades",[1]; [5],3 (15.0) n (%)
same,"Decreased appetite TEAE incidence, G≥3",[1]; [5],0 n (%)
same,"Fatigue TEAE incidence, All grades",[1]; [5],7 (35.0) n (%)
same,"Fatigue TEAE incidence, G≥3",[1]; [5],0 n (%)
same,"Muscular weakness TEAE incidence, All grades",[1]; [5],2 (10.0) n (%)
same,"Muscular weakness TEAE incidence, G≥3",[1]; [5],0 n (%)
same,"Nausea TEAE incidence, All grades",[1]; [5],7 (35.0) n (%)
same,"Nausea TEAE incidence, G≥3",[1]; [5],0 n (%)
same,"Pain in extremity TEAE incidence, All grades",[1]; [5],2 (10.0) n (%)
same,"Pain in extremity TEAE incidence, G≥3",[1]; [5],0 n (%)
same,"Peripheral edema TEAE incidence, All grades",[1]; [5],2 (10.0) n (%)
same,"Peripheral edema TEAE incidence, G≥3",[1]; [5],0 n (%)
same,"Pyrexia TEAE incidence, All grades",[1]; [5],4 (20.0) n (%)
same,"Pyrexia TEAE incidence, G≥3",[1]; [5],0 n (%)
same,"Vomiting TEAE incidence, All grades",[1]; [5],5 (25.0) n (%)
same,"Vomiting TEAE incidence, G≥3",[1]; [5],0 n (%)
same,Patients with grade 1 photophobia (possibly related),"[1]; Part B, BRAF-mutated 320 mg/m^2 once-weekly",one
same,Deaths (not considered related to E6201),[1]; [6],2 patients
same,Patients with grade 4 pericardial effusion (unrelated),[1]; [6],1 patient
same,"Anemia TEAE incidence, All grades","[1]; Part B, Total (N=30)",5 (16.7) n (%)
same,"Anemia TEAE incidence, G≥3","[1]; Part B, Total (N=30)",1 (3.3) n (%)
same,"Constipation TEAE incidence, All grades","[1]; Part B, Total (N=30)",5 (16.7) n (%)
same,"Constipation TEAE incidence, G≥3","[1]; Part B, Total (N=30)",0 n (%)
same,"Cough TEAE incidence, All grades","[1]; Part B, Total (N=30)",5 (16.7) n (%)
same,"Cough TEAE incidence, G≥3","[1]; Part B, Total (N=30)",0 n (%)
same,"Decreased appetite TEAE incidence, All grades","[1]; Part B, Total (N=30)",5 (16.7) n (%)
same,"Decreased appetite TEAE incidence, G≥3","[1]; Part B, Total (N=30)",0 n (%)
same,"Fatigue TEAE incidence, All grades","[1]; Part B, Total (N=30)",11 (36.7) n (%)
same,"Fatigue TEAE incidence, G≥3","[1]; Part B, Total (N=30)",0 n (%)
same,"Muscular weakness TEAE incidence, All grades","[1]; Part B, Total (N=30)",5 (16.7) n (%)
same,"Muscular weakness TEAE incidence, G≥3","[1]; Part B, Total (N=30)",0 n (%)
same,"Nausea TEAE incidence, All grades","[1]; Part B, Total (N=30)",10 (33.3) n (%)
same,"Nausea TEAE incidence, G≥3","[1]; Part B, Total (N=30)",1 (3.3) n (%)
same,"Pain in extremity TEAE incidence, All grades","[1]; Part B, Total (N=30)",5 (16.7) n (%)
same,"Pain in extremity TEAE incidence, G≥3","[1]; Part B, Total (N=30)",1 (3.3) n (%)
same,"Peripheral edema TEAE incidence, All grades","[1]; Part B, Total (N=30)",5 (16.7) n (%)
same,"Peripheral edema TEAE incidence, G≥3","[1]; Part B, Total (N=30)",1 (3.3) n (%)
same,"Pyrexia TEAE incidence, All grades","[1]; Part B, Total (N=30)",5 (16.7) n (%)
same,"Pyrexia TEAE incidence, G≥3","[1]; Part B, Total (N=30)",0 n (%)
same,"Vomiting TEAE incidence, All grades","[1]; Part B, Total (N=30)",7 (23.3) n (%)
same,"Vomiting TEAE incidence, G≥3","[1]; Part B, Total (N=30)",1 (3.3) n (%)
same,"QTcF prolongation to 450–500 ms, patients","[1]; Part B, four patients across dose groups",13.3%
same,"QTcF increase from baseline 30–60 ms, patients","[1]; Part B, seven patients",23.3%
same,"QTcF increase from baseline ≥60 ms, patients","[1]; Part B, two patients, BRAF-mutated 320 mg/m^2 once-weekly group",6.7%
same,"Maximum-tolerated dose (MTD), confirmed","[1]; Part B, 60-min infusion once-weekly for 3 weeks of a 28-day cycle",320 mg/m^2
same,Patients who died during the study,[2]; Parts A and B,Four
same,AEs of cardiomyopathy,[2]; during the study,no reported AEs of cardiomyopathy
same,New skin cancers,[2]; during the study,No new skin cancers were reported

# — publication PMC6008465 (British Journal of Cancer, 2018)
